Test results as given in patent US20140179521A1, “COMPOSITIONS INCORPORATING HYTd” (Agrinos AS, priority 2012, published 2014).

Assays:
Format in all cases: in vivo
[1] = tested on: potato variety Maris Piper; assay: Potato field experiment, tuber yield
Rhizoctonia solani = assay: Potato field experiment, expression of Rhizoctonia solani
Streptomyces scabies = assay: Potato field experiment, expression of Streptomyces scabies; conditions: potato Maris Piper, field plots, treatment applied at planting
small grain cereals = assay: Small grain cereal replicated field experiments, grain yield; conditions: applied topically at growth stage 37
Mildew = assay: Small grain cereal replicated field experiments, mildew level / disease control; conditions: small grain cereals
[2] = potato Maris Piper, field plots, treatment applied at planting
[3] = potatoes, in-furrow application, field observations

With `CO/C=C(/C(=O)OC)c1ccccc1Oc1cc(Oc2ccccc2C#N)ncn1` [azoxystrobin] the Yield t/ha [1, 2] was 62.17 t/ha, the “effect on yield (in words)” value [1, 3] was “little direct yield increase” and the R. solani (Rhizoctonia solani; [2]) was 2%. For the same molecule, the “control of Rhizoctonia (in words)” value (Rhizoctonia solani; [3]) was “high level disease control”, the S. scabies (Streptomyces scabies) was 46% and the Yield t/ha (small grain cereals) was 10.44 t/ha. For the same molecule, the “disease control / period of disease suppression (in words)” value (Mildew) was “significant levels of disease control”, the “Mildew level 7 days after treatment” value (Mildew; 7 days after treatment) was 4% and the “Mildew level 21 days after treatment” value (Mildew; 21 days after treatment) was 11%.
